This note sets out measurements from patent publication US20240090498A1, “ANTIMICROBIAL COMPOSITIONS” (TAKASAGO INTERNATIONAL CORPORATION, priority 2010, published 2024).

Structures are written as SMILES.

Holding throughout (format): cell-based
Test [1] has as its system Enterococcus faecalis ATCC 29212. In words: Vapor phase MIC / combined FIC on seeded BHI agar plates in sealed 7 L box. Particulars: ATCC29212, 72 h, E. faecalis, no growth after 3 days at room temperature, read-out: MIC alone (single material, vapor phase). From the text:
(§1) Seeded brain heart infusion (BHI) agar plates of Escherichia coli ATCC 10536, Salmonella enterica ATCC13311, Pseudomonas aeruginosa ATCC 15422, Staphylococcus aureus ATCC 6538, Enterococcus faecalis ATCC 29212, and Enterococcus hirae ATCC 10541 were placed in sealed 7 L acrylic boxes and exposed to vapors of trans-2-alkenals (C6 to C11 carbon chain length) and mustard essential oil (MEO) binary combinations.
(§2) The trans-2-alkenals and MEO were weighed neat into a glass jar which was positioned in the box between the seeded agar plates. The concentration of the single materials and binary combinations introduce in the 7 L box were expressed as weight per unit volume of the box (mg/L). Several concentrations ranging from 0.5 mg/L to 43 mg/L of the single materials and combinations were tested for each organism. The vapor phase minimum inhibition concentration (MIC) with “no growth” after 3 days of incubation at room temperature. Fractional Inhibition Concentrations (FIC) was determined to evaluate the antibacterial effect of trans-2-alkenals and MEO combinations in the vapor phase based on the following formula:
(§3) Combined FIC=(MIC of trans-2-alkenalcombination/MIC of trans-2-alkenalalone)+(MIC of MEOcombination/MIC of MEOalone)
(§4) Combined FIC values for trans-2-alkenals and MEO combinations are shown below in Table 1. Combinations with combined FIC equal or less than 0.5 are considered to have a strong synergistic effect.

Test [2] concerns Enterococcus hirae ATCC 10541. Described as above. Particulars: ATCC10541, 72 h, E. hirae, no growth after 3 days at room temperature, read-out: MIC alone (single material, vapor phase).
Source text: as §1, §2, §3, §4

Test [3] deals with Pseudomonas aeruginosa ATCC 15422. The description is as above. The conditions noted are these: ATCC15422, 72 h, P. aeruginosa, no growth after 3 days at room temperature, read-out: MIC alone (single material, vapor phase).
Source text: as §1, §2, §3, §4

Test [4] concerns Escherichia coli ATCC 10536. Described as above. Particulars: ATCC10536, 72 h, E. coli, no growth after 3 days at room temperature, read-out: MIC alone (single material, vapor phase).
Source text: as §1, §2, §3, §4

For test [5], the system named is Salmonella enterica ATCC13311. Described as above. Particulars: ATCC13311, 72 h, S. enterica, no growth after 3 days at room temperature, read-out: MIC alone (single material, vapor phase).
Source text: as §1, §2, §3, §4

Test [6] relates to Staphylococcus aureus ATCC 6538. Described as above. Particulars: ATCC6538, 72 h, S. aureus, no growth after 3 days at room temperature, read-out: MIC alone (single material, vapor phase).
Source text: as §1, §2, §3, §4

A further test concerns E.c. 10536. In words: MIC in solution. The conditions noted are these: Escherichia coli. On the procedure: (§5) MIC values were also determined for trans-2 octenal, octanal formulations, and MEO in solution and in the vapor phase.
For a further test, the system named is E.f. 29212. The test can be described thus: MIC in solution. The conditions noted are these: Enterococcus faecalis. The method, then:
as §5

For the next test, the system named is E.h. 10541. In words: MIC in solution. The conditions noted are these: Enterococcus hirae. On the procedure: as §5
Another test relates to P.a. 15442. The test can be described thus: MIC in solution. Particulars: Pseudomonas aeruginosa. The method, then: as §5
The subject of another test is S.a. 6538. In words: MIC in solution. The conditions noted are these: Staphylococcus aureus. The method, then: as §5
A further test concerns S.e. 13311. In words: MIC in solution. The conditions noted are these: Salmonella enterica. On the procedure:
as §5

The subject of test [7] is Enterococcus hirae ATCC 10541. In words: Vapor phase activity against bacteria (Example 2, growth grading versus control). Further: key: −: No Activity (growth); +: Slight Activity (some growth, but much less than control); ++: Medium Activity (pinprick growth); +++: High Activity (no growth). Particulars: E.h 10541; 7.1 or 9.3 mg/L as defined per composition; sealed 7 L box. On the procedure: (§6) Seeded brain heart infusion (BHI) agar plates of Escherichia coli ATCC 10536, Salmonella enterica ATCC13311, Pseudomonas aeruginosa ATCC 15422, Staphylococcus aureus ATCC 6538, Enterococcus faecalis ATCC 29212, and Enterococcus hirae ATCC 10541 were placed in sealed 7 L acrylic boxes and exposed to vapors of the compositions shown below. A control was established in which the agar plates was not treated with vapors. • Composition A: 9.3 mg/L of trans-2-hexenal • Composition B: 9.3 mg/L of trans-2-heptenal • Composition C: 9.3 mg/L of 2, 4-heptadienal • Composition D: 7.1 mg/L of trans-2-hexenal • Composition E: 7.1 mg/L of 2,4-heptadienal • Composition F: 7.1 mg/L of 2,4-heptadienal+citronellol (1:1) • Composition G: 9.3 mg/L of citronellal+citral DMA (1:1) • Composition H: 9.3 mg/L of benzaldehyde+citral DMA (1:1) • Composition I: 9.3 mg/L of furfural+citronellol (1:1) • Composition J: 7.1 mg/L of citral+citronellal (1:1) • Composition K: 7.1 mg/L of trans-2-hexenal+citronellol (1:1)

In test [8] the test system is Pseudomonas aeruginosa ATCC 15422. The test is described as above. The conditions noted are these: P.a. 15442; 7.1 or 9.3 mg/L as defined per composition; sealed 7 L box. The method, then: as §6
Test [9] relates to Enterococcus faecalis ATCC 29212. The description is as above. Particulars: E.f. 29212; 7.1 or 9.3 mg/L as defined per composition; sealed 7 L box. Further details: key to the marks not given beside the values. On the procedure:
as §6

Test [10] relates to Escherichia coli ATCC 10536. The description is as above. Further details: key to the marks not given beside the values. The conditions noted are these: E.c. 10536; 7.1 or 9.3 mg/L as defined per composition; sealed 7 L box. On the procedure:
as §6

Test [11] has as its system Salmonella enterica ATCC13311. The test is described as above. The conditions noted are these: S.e. 13311; 7.1 or 9.3 mg/L as defined per composition; sealed 7 L box. Further details: key to the marks not given beside the values. The method, then: as §6
Test [12] concerns Staphylococcus aureus ATCC 6538. Described as above. Also on record: key to the marks not given beside the values. The conditions noted are these: S.a. 6538; 7.1 or 9.3 mg/L as defined per composition; sealed 7 L box. The method, then:
as §6

The term MIC denotes the lowest concentration found to suppress growth. As for `CCC/C=C/C=O` [trans-2-hexenal], the MIC was 6.4 µg/mL in test [1], 12.8 µg/mL in [2] and 12.8 µg/mL in test [3].
For the compound `CCCCCCCC=O` [octanal], the MIC came out at 42.4 µg/mL in test [1]; 42.4 µg/mL in [2]; 21.1 µg/mL in [4]; 84.8 µg/mL in test [3]; 42.4 µg/mL in [5]; 7.8 µg/mL in test [6]. Also, the MIC in the test with E.c. 10536, in the test with E.f. 29212, against E.h. 10541, with P.a. 15442, in the test with S.a. 6538 and in the test with S.e. 13311 was over 125 µg/mL each time.
On to `CCCC/C=C/C=O` [Composition B, trans-2-heptenal], for which the “Vapor Phase Activity Against Bacteria” value was “+++” in [7]; “+” in test [8]; “+++” in test [9]; “+++” in test [10]; “+++” in [11]; “+++” in test [12].
As for `CCCCCCCC/C=C/C=O` [trans-2-undecenal], the MIC in [1] was determined as 12.8 µg/mL; in test [2], 12.8 µg/mL; in test [3], 43 µg/mL.
Consider `CCCCCCC/C=C/C=O` [trans-2-decenal], for which the MIC in test [1] was found to be 6.4 µg/mL; in [2] it was 6.4 µg/mL; in test [3] it was 43 µg/mL.
For `CC/C=C/C=C/C=O` [Composition E, 2,4-heptadienal], the “Vapor Phase Activity Against Bacteria” value was “+” in [7]; “++” in test [8]; “++” in test [9]; “+++” in test [10]; “+++” in test [11]; “+++” in test [12].
Take `CC/C=C/C=C/C=O` [Composition C, 2,4-heptadienal]: the “Vapor Phase Activity Against Bacteria” value in test [7] is listed as “+”; in test [8], “+++”; in [9] it was “+++”; in [10], “+++”; in [11], “+++”; in test [12] it was “+++”.
As to `CCC/C=C/C=O` [Composition A, trans-2-hexenal], the “Vapor Phase Activity Against Bacteria” value in test [7] was “+”; in [8], “+++”; in [9], “+++”; in [10], “+++”; in [11], “+++”; in [12], “+++”.
As to `CCCC/C=C/C=O` [trans-2-heptenal], the MIC worked out at 6.4 µg/mL in [1], 12.8 µg/mL in [2] and 25.6 µg/mL in test [3].
With `CCCCCC/C=C/C=O` [trans-2-nonenal], the MIC in [1] was 6.4 µg/mL; in [2] it was 6.4 µg/mL; in [3], 43 µg/mL.
`CCCCC/C=C/C=O` [trans-2-octenal]: the MIC is 43 µg/mL in test [1]; 25.6 µg/mL in [2]; 43 µg/mL in [4]; 43 µg/mL in test [3]; 43 µg/mL in test [5]; 3.6 µg/mL in test [6]. Further, the MIC in the test on E.c. 10536, in the test with E.f. 29212, with E.h. 10541, with P.a. 15442, in the test with S.a. 6538 and against S.e. 13311 was over 125 µg/mL in each case.
